Earlier results in patent US9890151B2, “3,5-dichloro,4-(3,4-(cyclo-)alkoxyphenyl)- 2-carbonyloxy)ethyl)pyridine derivatives as PDE-4 inhibitors” (CHIESI FARMACEUTICI S.p.A., priority 2014, dated 2018).

[1] = patients with severe disease who have frequent exacerbations and mucus hypersecretion

In the case of `O=C(Nc1c(Cl)cncc1Cl)c1ccc(OC(F)F)c(OCC2CC2)c1` [roflumilast], the “reduction of the numbers of neutrophils in sputum” value (COPD patients, oral roflumilast given over 4 weeks) is given as 36%, the “improvement of FEV 1” value [1] is given as “approximately 50 mL” and the reduction of exacerbation [1] is given as “about 15%”.
